ChEMBL document CHEMBL5136977, “Discovery of 1-(5-(1H-benzo[d]imidazole-2-yl)-2,4-dimethyl-1H-pyrrol-3-yl)ethan-1-one derivatives as novel and potent bromodomain and extra-terminal (BET) inhibitors with anticancer efficacy” (Eur J Med Chem, 2022)
The source made the active and inactive calls. The rule behind the calls is not given here.

Columns and labels:
[1] = Induction of cell apoptosis in human MV4-11 cells assessed as late apoptotic cells at 200 nM incubated for 48 hrs by Annexin V-FITC/Propidium iodide staining based flow cytometry analysis (reference value: 1.99%); format: functional
[2] = Clearance in Sprague-Dawley rat at 1 mg/kg, iv by LC-MS/MS analysis; format: ADME, organism-based; conditions: in vivo
[3] = Oral bioavailability in Sprague-Dawley rat at 10 mg/kg by LC-MS/MS analysis; format: ADME, organism-based; conditions: in vivo
[4] = test system: MV4-11; test: Induction of cell cycle arrest in human MV4-11 cells assessed as downregulation of c-myc expression incubated for 24 hrs by Western blotting analysis; format: functional, cell-based; conditions: dose 62.5-250 nM, DDE = dose-dependent effect
[5] = Volume of distribution in Sprague-Dawley rat at 1 mg/kg, iv by LC-MS/MS analysis; format: ADME, organism-based; conditions: in vivo
[6] = Half life in Sprague-Dawley rat at 10 mg/kg, po by LC-MS/MS analysis; format: ADME, organism-based; conditions: in vivo
[7] = Metabolic stability in monkey liver microsomes assessed as intrinsic clearance incubated for 1 hr by LC-MS/MS analysis; format: ADME, Macaca mulatta, Microsome; conditions: rhesus monkey, read-out: CLH
[8] = test system: MV4-11; test: Antitumor activity against human MV4-11 cells xenografted BALB/c nude mouse model assessed as tumor growth inhibition at 80 mg/kg, po QD administered for 28 consecutive days; format: functional; conditions: MV4-11, 672 h, time 28 day, read-out: TGI
[9] = test system: MV4-11; test: Induction of cell apoptosis in human MV4-11 cells assessed as upregulation of cleaved PARP level at 62.5 to 250 nM incubated for 24 hrs by Western blotting analysis; format: functional, cell-based; conditions: dose 62.5-250 nM
[10] = Metabolic stability in monkey liver microsomes assessed as elimination half life incubated for 1 hr by LC-MS/MS analysis; format: ADME, Macaca mulatta, Microsome; conditions: rhesus monkey, read-out: beta t1/2
[11] = AUC (0 to infinity) in Sprague-Dawley rat at 10 mg/kg, po by LC-MS/MS analysis; format: ADME, organism-based; set-up: time infinity, dose 10 mg/kg, route po; conditions: in vivo
[12] = test system: HL-60(TB); test: Antiproliferative activity against human HL-60(TB) cells assessed as cell growth inhibition measured after 72 hrs by CellTiter-Glo assay; format: functional

SMILES: CC(=O)c1c(C)[nH]c(-c2nc3cc(N4CCN(C)CC4)ccc3[nH]2)c1-c1ccccc1
- Activity [1]: 4.78%
- clearance [2]: 24.3 mL/min/kg
- bioavailability [3]: 111%
- Activity [4]: Dde
- Vd [5]: 3.3 L/kg
- half-life [6]: 4.04 h
- microsomal CLint [7]: 16.5 µL/min/mg
- inhibition in vivo at 80 mg/kg [8]: 34.8%
- Activity [9]: Active
- half-life [10]: 1.42 h
- AUC(0-inf) [11]: 8050 ng·h/mL
- GI50 [12]: 261 nM
